Data: patent US12201601B2, “Treatment for obesity” (Axsome Malta Ltd., priority 2013, dated 2025)

Test: 6-week randomized, double blind, active and placebo-controlled study in adult subjects with major depressive disorder: body weight
Type: in vivo, Humans
Protocol: A 6-week randomized, double blind, parallel group, active and placebo-controlled study was carried out to assess the efficacy of R228060 in adult subjects with major depressive disorder (MDD). Body weight was monitored throughout the study.

[1] = Paroxetine (N = 117), baseline to endpoint
[2] = Paroxetine group, baseline to endpoint

Fc1ccc([C@@H]2CCNC[C@H]2COc2ccc3c(c2)OCO3)cc1 [Paroxetine, reference compound]
Subjects with weight Decrease ≥7% [1]: 0 n (%) | Subjects with weight Increase <7% [1]: 54 (46.2) n (%) | Subjects with weight Increase ≥7% [1]: 1 (0.9) n (%) | Subjects with weight No change/decrease <7% [1]: 62 (53.0) n (%) | Weight, End point, Mean (Paroxetine group, 6-week study): 83.2 kg | Weight, End point, Median (Paroxetine group, 6-week study): 79.8 kg | Mean weight gain [2]: 0.1 kg | Weight, Change from Baseline, Mean [2]: 0.1 kg | Weight, Change from Baseline, Median [2]: 0.0 kg | Mean change from baseline to endpoint in BMI (paroxetine): 0
